Experimental data from US4740504A, “Antihyperlipidemic amine boranes” (United States Borax & Chemical Corp., priority 1987, dated 1988).
Read-outs that look alike come from different tables or passages of the source.

Tests used:
[1] = system: male CF1 mice; experiment: Hypolipidemic activity in CF1 mice, intraperitoneal dosing (serum cholesterol and triglyceride); format: in vivo; settings: Mus musculus, ip, male CF1 mice; for response vs control in vivo at 20 mg/kg / response vs control in vivo at 5 mg/kg: Table I; for response vs control in vivo at 20 mg/kg: 20 mg./kg./day i.p.; for response vs control in vivo at 8 mg/kg: Table II, 8 mg./kg./day i.p.; for response vs control in vivo at 5 mg/kg: 5 mg./kg./day i.p.
Description: For determining hypolipidemic activity, the compounds were suspended in an aqueous 1% carboxymethylcellulose solution and tested at 5 or 20 mg./kg./day administered intraperitoneally to male CF1 mice (~25 g.). On days 9 and 16 blood was collected by tail vein bleeding and the serum separated by centrifugation for three minutes. Serum cholesterol levels were determined by a modified Liebermann-Burchard reaction. Serum triglyceride levels were also determined at 16 days using a Fisher-Hycel Triglyceride Test Kit.
The test was repeated at a dosage of 8 mg./kg./day.
N-n-Octadecyl-N,N-dimethylamine borane was suspended in an aqueous 1% carboxymethylcellulose solution, homogenized, and administered to CF1 male mice (~25 g.) intraperitoneally for 16 days or Sprague Dawley male rats (~350 g.) orally by an intubation needle for 14 days. On days 9 and 14 or 16, blood was obtained by tail vein bleeding and the serum separated by centrifugation for 3 minutes. The serum cholesterol levels were determined by a modification of the Liebermann-Burchard reaction. Serum was also collected on day 14 or 16 and the triglyceride content was determined by a Fisher-Hycel Triglyceride Test Kit.

[2] = dose of 5-20 mg/kg/day; Hall et al., J. Pharm. Sci. 70, 339-341 (1981); cited from earlier work
[3] = system: phosphatidate phosphohydrolase; settings: in vivo; Hall et al. 1984; cited from earlier work
[4] = target: T1, acetyl CoA synthetase (Mus musculus, UniProt Q9QXG4); settings: in vivo; Hall et al. 1984; cited from earlier work
T1 construct: from tissue
T1 sequence (Q9QXG4 whole entry): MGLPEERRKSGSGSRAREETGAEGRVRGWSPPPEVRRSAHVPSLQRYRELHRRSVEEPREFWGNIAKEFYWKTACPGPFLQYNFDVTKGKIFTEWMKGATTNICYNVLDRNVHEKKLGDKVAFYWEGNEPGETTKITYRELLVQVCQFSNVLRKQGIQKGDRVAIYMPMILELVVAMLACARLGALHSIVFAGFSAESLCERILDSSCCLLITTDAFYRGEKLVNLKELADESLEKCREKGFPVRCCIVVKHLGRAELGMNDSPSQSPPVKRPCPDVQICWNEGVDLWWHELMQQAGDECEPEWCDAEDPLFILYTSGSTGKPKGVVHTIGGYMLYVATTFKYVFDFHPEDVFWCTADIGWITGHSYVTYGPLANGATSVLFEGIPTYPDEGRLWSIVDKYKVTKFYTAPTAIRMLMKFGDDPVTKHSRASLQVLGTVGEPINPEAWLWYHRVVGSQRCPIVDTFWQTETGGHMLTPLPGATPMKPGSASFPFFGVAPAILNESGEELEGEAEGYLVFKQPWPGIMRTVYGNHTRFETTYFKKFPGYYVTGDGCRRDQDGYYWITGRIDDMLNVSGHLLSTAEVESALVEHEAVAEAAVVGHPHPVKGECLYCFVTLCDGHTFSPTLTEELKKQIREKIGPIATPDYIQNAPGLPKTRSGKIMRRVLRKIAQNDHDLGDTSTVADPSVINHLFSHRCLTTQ

[5] = system: mice; settings: cited from earlier work
[6] = target: T2, ATP dependent citrate lyase (Mus musculus, UniProt Q91V92); settings: in vivo; Hall et al. 1984; cited from earlier work
T2 construct: from tissue
T2 sequence (Q91V92 1-1091): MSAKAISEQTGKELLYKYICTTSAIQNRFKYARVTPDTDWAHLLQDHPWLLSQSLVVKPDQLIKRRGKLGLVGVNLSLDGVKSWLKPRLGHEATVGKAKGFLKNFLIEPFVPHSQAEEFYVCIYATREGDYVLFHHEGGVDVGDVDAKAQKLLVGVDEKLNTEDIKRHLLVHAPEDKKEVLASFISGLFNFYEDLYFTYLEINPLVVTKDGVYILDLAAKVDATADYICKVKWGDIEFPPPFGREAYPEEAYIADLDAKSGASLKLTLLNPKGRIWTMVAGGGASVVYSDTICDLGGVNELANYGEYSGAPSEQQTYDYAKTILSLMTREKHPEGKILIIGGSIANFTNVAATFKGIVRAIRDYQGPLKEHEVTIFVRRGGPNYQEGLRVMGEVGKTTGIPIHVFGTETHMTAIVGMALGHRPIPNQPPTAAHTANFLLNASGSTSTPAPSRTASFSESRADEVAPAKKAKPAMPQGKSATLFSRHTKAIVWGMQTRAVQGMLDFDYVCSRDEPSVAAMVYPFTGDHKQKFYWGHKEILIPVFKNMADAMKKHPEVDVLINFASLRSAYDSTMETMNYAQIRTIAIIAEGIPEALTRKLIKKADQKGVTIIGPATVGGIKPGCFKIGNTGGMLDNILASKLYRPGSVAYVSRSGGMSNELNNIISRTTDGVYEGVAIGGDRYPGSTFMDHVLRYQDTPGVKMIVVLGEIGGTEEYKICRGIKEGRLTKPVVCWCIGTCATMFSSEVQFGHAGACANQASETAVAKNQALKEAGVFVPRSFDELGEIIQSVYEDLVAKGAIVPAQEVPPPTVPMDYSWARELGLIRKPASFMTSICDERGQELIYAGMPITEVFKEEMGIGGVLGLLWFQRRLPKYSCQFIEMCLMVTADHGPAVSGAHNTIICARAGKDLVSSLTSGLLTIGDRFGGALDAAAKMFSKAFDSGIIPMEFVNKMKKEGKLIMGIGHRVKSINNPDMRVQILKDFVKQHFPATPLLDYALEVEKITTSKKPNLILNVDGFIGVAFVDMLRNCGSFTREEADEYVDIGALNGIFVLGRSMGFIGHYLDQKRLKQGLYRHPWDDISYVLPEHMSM

[7] = 216 h, day 9, read-out: Serum Cholesterol Day 9
[8] = 384 h, day 16, read-out: Serum Cholesterol Day 16
[9] = 384 h, day 16, read-out: Serum Triglyceride Day 16

Molecule	response vs control in vivo at 20 mg/kg [1, 7] [%]	response vs control in vivo at 8 mg/kg [1, 7] [%]	response vs control in vivo at 20 mg/kg [1, 8] [%]	response vs control in vivo at 20 mg/kg [1, 9] [%]	response vs control in vivo at 8 mg/kg [1, 8] [%]	response vs control in vivo at 8 mg/kg [1, 9] [%]	response vs control in vivo at 5 mg/kg [1, 7] [%]	response vs control in vivo at 5 mg/kg [1, 8] [%]	response vs control in vivo at 5 mg/kg [1, 9] [%]	hypolipidemic activity (printed: hyperlipidemic) [2]	effect on phosphatidate phosphohydrolase [3]	effect on acetyl CoA synthetase [4]	hypolipidemic activity ([5]; 2.5 mg/kg in mice, Hall et al., J. Pharm. Sci. 73, 973-977 (1984))	cholesterol excretion from the body ([5]; Hall et al. 1984)	effect on ATP dependent citrate lyase [6]
[BH3-][N+](C)(C)CCCCCCCC [II, N-octyl-N,N-dimethylamine borane]	66	81	69	75	73	74	–	–	–	–	–	–	–	–	–
[BH3-][N+](C)(C)CCCCCCCCCCC [IV, N--undecyl-N,N--dimethylamine borane]	–	82	–	–	68	75	68	63	82	–	–	–	–	–	–
[BH3-][N+](C)(C)CCCCCCCCCCCC [IX, N--dodecyl-N,N--dimethylamine borane]	103	75	97	90	74	94	–	–	–	–	–	–	–	–	–
[BH3-][N+](C)(C)CCCCCCCCCCCCC [V, N--tridecyl-N,N--dimethylamine borane]	88	86	65	57	84	76	–	–	–	–	–	–	–	–	–
[BH3-][N+](C)(C)CCCCCCCCCCCCCCC [VI, N--pentadecyl-N,N--dimethylamine borane]	86	81	64	70	66	77	–	–	–	–	–	–	–	–	–
[BH3-][N+](C)(C)CCCCCCCCCCCCCC [VII, N--tetradecyl-N,N--dimethylamine borane]	79	80	60	102	67	80	–	–	–	–	–	–	–	–	–
[BH3-][N+](C)(C)CCCCCCCCCCCCCCCC [VIII, N--hexadecyl-N,N--dimethylamine borane]	74	79	62	72	59	41	–	–	–	–	–	–	–	–	–
[BH3-][N+](C)(C)CCCCCC [X, N-- -n-hexyl-N,N--dimethylamine borane]	66	73	48	71	69	80	–	–	–	–	–	–	–	–	–
[BH3-][N+](C)(C)CCCC [XI, N-- -n-butyl-N,N--dimethylamine borane]	72	88	62	68	64	72	–	–	–	–	–	–	–	–	–
[BH3-][N+](C)(C)CCCCCCCCCC [XII, N--decyl-N,N--dimethylamine borane]	51	77	46	76	77	79	–	–	–	–	–	–	–	–	–
[BH3-][N+](C)(C)Cc1ccccc1 [XIII, N--benzyl-N,N--dimethylamine borane]	95	73	71	60	65	53	–	–	–	–	–	–	–	–	–
C[N+](C)(C)[BH2-]C(=O)O [trimethylamine carboxyborane]	–	–	–	–	–	–	–	–	–	potent hyperlipidemic activity	–	–	–	–	–
tetrakis-μ-(trimethylamine-borane carboxyato)-bis(trimethylamine-carboxyborane)-dicopper (II)	–	–	–	–	–	–	–	–	–	–	lower	lower	potent hypolipidemic agent	accelerate cholesterol excretion	lower
